Experimental data taken from patent US20070128217A1 (priority 2003, published 2007).

Columns and labels:
[1] = system: control sera (pooled serum of ten healthy LUMC hospital workers; commercial negative donor pooled serum from the Dutch bloodbank); assay type: binding, human; design: Binding of Control serum LUMC to linear peptides / Binding of Control serum Blood-bank to linear peptides / Binding of Control serum LUMC to looped peptides / Binding of Control Serum Blood-Bank to Looped peptides / Binding of Control serum LUMC to linear peptides of the protein M of SARS-CoV Urbani / Binding of Control serum Blood-bank to linear peptides of the protein M of SARS-CoV Urbani / Binding of Control serum LUMC to looped peptides of the protein M of SARS-CoV Urbani / Binding of Control Serum Blood-Bank to Looped peptides of the protein M of SARS-CoV Urbani: unit not given here
[2] = system: antibodies in sera from SARS patients (sera 1a, 1b, 2, 6, 37, 62, London, SARS-yellow, SARS-green); assay type: binding, human; design: Binding of serum 6 to linear peptides of protein X1 of SARS-CoV Urbani / Binding of serum 37 to linear peptides of protein X1 of SARS-CoV Urbani / Binding of serum 6 to looped/cyclic peptide (PEPSCAN-ELISA) / Binding of serum 37 to looped/cyclic peptide (PEPSCAN-ELISA) / Binding of serum 37 to looped/cyclic peptides of protein X1 of SARS-CoV Urbani / Binding of serum 6 to linear peptides of protein X2 / Binding of serum 37 to linear peptides of protein X2 / Binding of serum 37 to looped/cyclic peptides of protein X2 of SARS-CoV Urbani / Binding of serum 6 to linear peptides of protein M of SARS-CoV Urbani / Binding of serum 37 to linear peptides of protein M of SARS-CoV Urbani / Binding of serum 6 to looped/cyclic peptides of protein M of SARS-CoV Urbani / Binding of serum 37 to looped/cyclic peptides of protein M of SARS-CoV Urbani / Binding of serum 6 to linear peptides of protein X3 of SARS-CoV Urbani / Binding of serum 37 to linear peptides of protein X3 of SARS-CoV Urbani / Binding of serum 37 to looped/cyclic peptides of protein X3 of SARS-CoV Urbani / Binding of serum 6 to linear peptides of protein X4 of SARS-CoV Urbani / Binding of serum 37 to linear peptides of protein X4 of SARS-CoV Urbani / Binding of serum 37 to looped/cyclic peptides of protein X4 of SARS-CoV Urbani / Binding of serum 6 to linear peptides of protein X5 of SARS-CoV Urbani / Binding of serum 37 to linear peptides of protein X5 of SARS-CoV Urbani / Binding of serum 37 to looped/cyclic peptides of protein X5 of SARS-CoV Urbani / Binding of serum 6 to linear peptides of protein N of SARS-CoV Urbani / Binding of serum 37 to linear peptides of protein N of SARS-CoV Urbani / Binding of serum 6 to linear peptide (PEPSCAN-ELISA) / Binding of serum 1a to looped/cyclic peptides of protein N of SARS-CoV Urbani / Binding of serum 1b to looped/cyclic peptides of protein N of SARS-CoV Urbani / Binding of serum 2 to looped/cyclic peptides of protein N of SARS-CoV Urbani / Binding of serum 6 to looped/cyclic peptides of protein N of SARS-CoV Urbani / Binding of serum 37 to looped/cyclic peptides of protein N of SARS-CoV Urbani / Binding of serum 62 to looped/cyclic peptides of protein N of SARS-CoV Urbani / Binding of serum London to looped/cyclic peptides of protein N of SARS-CoV Urbani / Binding of serum SARS-green to looped/cyclic peptides of protein N of SARS-CoV Urbani: unit not given here
[3] = system: rabbit serum obtained by immunizing a rabbit with the SARS-CoV strain Frankfurt 1; assay type: binding; design: Binding of a rabbit serum to linear peptides / Binding of a rabbit serum to looped peptides / Rabbit serum linear peptides / Rabbit serum looped peptides / Binding of a rabbit serum to linear peptides of protein N of SARS-CoV Urbani (Rabbit serum linear peptides) / Binding of a rabbit serum to looped/cyclic peptides of protein N of SARS-CoV Urbani (Rabbit serum looped peptides): unit not given here

EEVQQELYSPLFLIV
0.5: Rabbit serum looped peptides [3]
recognized in looped/cyclic form: Recognition of the peptide by sera of SARS-CoV infected individuals, and form (linear, looped/cyclic) in which it is recognized [2]
0.6: Binding of Control serum Blood-bank to linear peptides [1] | Binding of Control serum LUMC to linear peptides [1] | Binding of serum 1b to linear peptides of protein X4 of SARS-CoV Urbani [2] | Binding of serum 2 to linear peptides of protein X4 of SARS-CoV Urbani [2] | Binding of serum 6 to linear peptides of protein X4 of SARS-CoV Urbani [2]
0.4: Rabbit serum linear peptides [3]
1.0: Binding of Control Serum Blood-Bank to Looped peptides [1] | Binding of Control serum LUMC to looped peptides [1]
0.7: Binding of serum 1a to linear peptides of protein X4 of SARS-CoV Urbani [2] | Binding of serum 37 to linear peptides of protein X4 of SARS-CoV Urbani [2] | Binding of serum London to linear peptides of protein X4 of SARS-CoV Urbani [2] | Binding of serum SARS-green to linear peptides of protein X4 of SARS-CoV Urbani [2]
0.8: Binding of serum 62 to linear peptides of protein X4 of SARS-CoV Urbani [2] | Binding of serum SARS-yellow to linear peptides of protein X4 of SARS-CoV Urbani [2]

EGDGISTPKLKEDYQ
0.5: Binding of serum 37 to linear peptides of protein X1 of SARS-CoV Urbani [2]
0.6: Binding of serum 1a to linear peptides of protein X1 of SARS-CoV Urbani [2] | Binding of serum 2 to linear peptides of protein X1 of SARS-CoV Urbani [2]
0.1: Binding of serum SARS-yellow to looped/cyclic peptides of protein X1 of SARS-CoV Urbani [2] | Binding of a rabbit serum to linear peptides [3]
0.2: Binding of Control serum Blood-bank to linear peptides [1] | Binding of serum 2 to looped/cyclic peptides of protein X1 of SARS-CoV Urbani [2] | Binding of serum 6 to looped/cyclic peptides of protein X1 of SARS-CoV Urbani [2] | Binding of serum London to looped/cyclic peptides of protein X1 of SARS-CoV Urbani [2] | Binding of serum SARS-green to linear peptides of protein X1 of SARS-CoV Urbani [2] | Binding of serum SARS-green to looped/cyclic peptides of protein X1 of SARS-CoV Urbani [2] | Binding of serum SARS-yellow to linear peptides of protein X1 of SARS-CoV Urbani [2]
0.4: Binding of Control Serum Blood-Bank to Looped peptides [1] | Binding of Control serum LUMC to looped peptides [1] | Binding of serum 1a to looped/cyclic peptides of protein X1 of SARS-CoV Urbani [2] | Binding of serum 62 to linear peptides of protein X1 of SARS-CoV Urbani [2] | Binding of a rabbit serum to looped peptides [3]
0.3: Binding of Control serum LUMC to linear peptides [1] | Binding of serum 1b to linear peptides of protein X1 of SARS-CoV Urbani [2] | Binding of serum 1b to looped/cyclic peptides of protein X1 of SARS-CoV Urbani [2] | Binding of serum 6 to linear peptides of protein X1 of SARS-CoV Urbani [2] | Binding of serum 37 to looped/cyclic peptides of protein X1 of SARS-CoV Urbani [2] | Binding of serum 62 to looped/cyclic peptides of protein X1 of SARS-CoV Urbani [2] | Binding of serum London to linear peptides of protein X1 of SARS-CoV Urbani [2]

EITVATSRTLSYYKL
0.6: Binding of Control serum LUMC to looped peptides of the protein M of SARS-CoV Urbani [1] | Binding of serum 1a to looped/cyclic peptides of protein M of SARS-CoV Urbani [2] | Binding of serum 2 to linear peptides of protein M of SARS-CoV Urbani [2]
0.2: Binding of serum London to looped/cyclic peptides of protein M of SARS-CoV Urbani [2]
0.5: Binding of serum 1b to linear peptides of protein M of SARS-CoV Urbani [2] | Binding of serum 2 to looped/cyclic peptides of protein M of SARS-CoV Urbani [2] | Binding of serum 6 to looped/cyclic peptides of protein M of SARS-CoV Urbani [2] | Binding of serum 37 to looped/cyclic peptides of protein M of SARS-CoV Urbani [2] | Binding of serum 62 to looped/cyclic peptides of protein M of SARS-CoV Urbani [2] | Binding of serum SARS-yellow to looped/cyclic peptides of protein M of SARS-CoV Urbani [2]
0.4: Binding of Control serum LUMC to linear peptides of the protein M of SARS-CoV Urbani [1] | Binding of serum 1b to looped/cyclic peptides of protein M of SARS-CoV Urbani [2] | Binding of serum 6 to linear peptides of protein M of SARS-CoV Urbani [2] | Binding of serum SARS-green to linear peptides of protein M of SARS-CoV Urbani [2]
0.7: Binding of Control Serum Blood-Bank to Looped peptides of the protein M of SARS-CoV Urbani [1] | Binding of Control serum Blood-bank to linear peptides of the protein M of SARS-CoV Urbani [1] | Binding of serum 1a to linear peptides of protein M of SARS-CoV Urbani [2] | Rabbit serum linear peptides [3]
0.8: Binding of serum 37 to linear peptides of protein M of SARS-CoV Urbani [2]
0.3: Binding of serum London to linear peptides of protein M of SARS-CoV Urbani [2] | Binding of serum SARS-green to looped/cyclic peptides of protein M of SARS-CoV Urbani [2]
0.9: Binding of serum 62 to linear peptides of protein M of SARS-CoV Urbani [2]
0.1: Binding of serum SARS-yellow to linear peptides of protein M of SARS-CoV Urbani [2] | Rabbit serum looped peptides [3]

ELLIQQWIQFMMSRR
0.5: Binding of Control serum Blood-bank to linear peptides [1] | Binding of Control serum LUMC to looped peptides [1] | Binding of serum 1a to looped/cyclic peptides of protein X2 of SARS-CoV Urbani [2] | Binding of serum 1b to linear peptides of protein X2 [2] | Binding of serum 2 to looped/cyclic peptides of protein X2 of SARS-CoV Urbani [2] | Binding of serum 37 to looped/cyclic peptides of protein X2 of SARS-CoV Urbani [2]
0.7: Binding of serum 1a to linear peptides of protein X2 [2]
0.3: Binding of serum 6 to linear peptides of protein X2 [2] | Binding of serum 6 to looped/cyclic peptides of protein X2 of SARS-CoV Urbani [2]
0.8: Binding of serum SARS-yellow to linear peptides of protein X2 [2]
0.2: Binding of serum London to looped/cyclic peptides of protein X2 of SARS-CoV Urbani [2]
0.6: Binding of Control Serum Blood-Bank to Looped peptides [1] | Binding of serum 37 to linear peptides of protein X2 [2] | Binding of serum 62 to linear peptides of protein X2 [2] | Binding of serum 62 to looped/cyclic peptides of protein X2 of SARS-CoV Urbani [2] | Binding of serum SARS-green to linear peptides of protein X2 [2]
0.4: Binding of Control serum LUMC to linear peptides [1] | Binding of serum 1b to looped/cyclic peptides of protein X2 of SARS-CoV Urbani [2] | Binding of serum 2 to linear peptides of protein X2 [2] | Binding of serum London to linear peptides of protein X2 [2] | Binding of serum SARS-green to looped/cyclic peptides of protein X2 of SARS-CoV Urbani [2] | Binding of serum SARS-yellow to looped/cyclic peptides of protein X2 of SARS-CoV Urbani [2] | Binding of a rabbit serum to linear peptides [3] | Binding of a rabbit serum to looped peptides [3]

ELVIGAVIIRGHLRM
0.3: Binding of serum 6 to linear peptides of protein M of SARS-CoV Urbani [2] | Binding of serum London to linear peptides of protein M of SARS-CoV Urbani [2] | Binding of serum SARS-green to linear peptides of protein M of SARS-CoV Urbani [2] | Binding of serum SARS-green to looped/cyclic peptides of protein M of SARS-CoV Urbani [2]
0.1: Binding of serum SARS-yellow to linear peptides of protein M of SARS-CoV Urbani [2] | Rabbit serum looped peptides [3]
0.4: Binding of serum 1b to looped/cyclic peptides of protein M of SARS-CoV Urbani [2]
0.7: Binding of Control Serum Blood-Bank to Looped peptides of the protein M of SARS-CoV Urbani [1] | Binding of Control serum Blood-bank to linear peptides of the protein M of SARS-CoV Urbani [1] | Binding of serum 2 to linear peptides of protein M of SARS-CoV Urbani [2] | Binding of serum 2 to looped/cyclic peptides of protein M of SARS-CoV Urbani [2] | Binding of serum 6 to looped/cyclic peptides of protein M of SARS-CoV Urbani [2] | Binding of serum 37 to looped/cyclic peptides of protein M of SARS-CoV Urbani [2]
0.6: Binding of Control serum LUMC to looped peptides of the protein M of SARS-CoV Urbani [1] | Binding of serum 1b to linear peptides of protein M of SARS-CoV Urbani [2] | Binding of serum 62 to looped/cyclic peptides of protein M of SARS-CoV Urbani [2] | Binding of serum SARS-yellow to looped/cyclic peptides of protein M of SARS-CoV Urbani [2]
0.5: Binding of Control serum LUMC to linear peptides of the protein M of SARS-CoV Urbani [1]
0.2: Binding of serum London to looped/cyclic peptides of protein M of SARS-CoV Urbani [2]
0.8: Binding of serum 1a to linear peptides of protein M of SARS-CoV Urbani [2] | Binding of serum 1a to looped/cyclic peptides of protein M of SARS-CoV Urbani [2] | Binding of serum 37 to linear peptides of protein M of SARS-CoV Urbani [2] | Binding of serum 62 to linear peptides of protein M of SARS-CoV Urbani [2] | Rabbit serum linear peptides [3]
